According to US20220323427A1, “SOMATOSTATIN RECEPTOR TYPE 5 AGONIST FOR THE TREATMENT OF HYPERINSULINISM” (Crinetics Pharmaceuticals, Inc., priority 2021, published 2022):

What was measured:
[1] = MAD study pharmacokinetics; type: in vivo, human
Protocol: (§1) MAD/Part 2: multiple ascending dose, randomized, placebo-controlled, double-blind; up to 5 cohorts, n=9/cohort; subjects in MAD will receive Compound 1 or the placebo. Subjects will undergo a mixed meal tolerance test (MMTT) and an SU challenge and euglycemic clamp procedure. The doses will not exceed the doses in the SAD. Doses will escalate from 30 mg to 120 mg.

[2] = MAD study safety and tolerability; type: in vivo, human; conditions: QD 30, 60 and 120 mg/day for 10 days
Protocol: as §1
To evaluate the safety and tolerability of single and multiple doses of Compound 1.

[3] = tested on: glyburide-induced hyperinsulinemic hypoglycemia; assay: Glyburide-induced hyperinsulinemic hypoglycemia model in rats; type: in vivo, Sprague Dawley rats; conditions: for Blood glucose levels reached over 5 hours: male rats, 2 h after glyburide, vehicle 94 mg/dL
Protocol: Sulfonylurea drugs, such as glyburide, inhibit KATP channels and can be used in rat preclinical models to mimic the disease state of congenital HI patients with KATP channel mutations.
This model of glyburide-induced hyperinsulinemic hypoglycemia was used to assess the pharmacodynamic effects of Compound 1 after a single administration in male and female adult rats and male neonatal rats.
Glyburide was administered to raise insulin levels and induce hypoglycemia in adult male Sprague Dawley rats.
Two hours following glyburide administration, Compound 1 was given by oral gavage and blood glucose was monitored over 5 hours.

[4] = SAD study pharmacokinetics; type: in vivo, human
Source text: This Phase 1, first-in-human, double-blind, randomized, placebo-controlled study will evaluate the safety of Compound 1 in healthy volunteers as well as the relationship between exposure and key pharmacodynamic (PD) parameters. The study will initiate with a single ascending dose (SAD) phase followed by a multiple ascending dose (MAD) phase. Food effect will also be evaluated in subset of subjects in the SAD phase. Results will be used to inform endpoints and other parameters in later studies in patients with congenital HI.
SAD 1a/Part 1a: ascending single dose, randomized, placebo-controlled, double-blind; up to 10 cohorts, n=8/cohort; subjects in SAD 1a will undergo an IVGTT. Doses will escalate from 0.5 mg to 120 mg.
SAD 1c/Part 1c: single dose, 1-arm crossover food effect investigation; 1 cohort, n=6; SAD 1c will not be placebo-controlled or blinded. The dose is 120 mg.
In SAD 1c, subjects will participate in a 1-arm crossover investigation to evaluate the effect of a high-fat meal on Compound 1 absorption.

[5] = Exposure in non-fasted male rats; conditions: Sprague Dawley, rat, in vivo, oral, 10 mg/kg
[6] = tested on: sulfonylurea-induced hyperinsulinism; assay: Sulfonylurea (glibenclamide) challenge and euglycemic clamp, MAD; type: in vivo, human
Protocol: as §1
In SAD 1b and the MAD, subjects will undergo an SU challenge in the setting of a euglycemic clamp procedure. Sulfonylurea drugs act to close KATP channel of the pancreatic β-cell, stimulating endogenous insulin secretion. Given that the majority (50%) of patients with congenital HI harbor a mutation in the KATP channel, the SU challenge models this genetic form of HI in healthy volunteers. Intravenous glucose will be used during the euglycemic clamp to maintain glucose within a target range. In the presence of an SU, the amount of intravenous (IV) glucose required to maintain a target glucose will increase, similar to patients with congenital HI who require supplemental glucose. The SU challenge cohorts in SAD 1b will assess the ability of a single dose of Compound 1 to reduce or prevent SU-induced glucose lowering as measured by reduced IV glucose infusion (reduced glucose “support”). IV glucose requirements will be assessed as a glucose infusion rate, or GIR (mg dextrose/kg body weight/minute). In the MAD, the durability of the Compound 1 effect will be measured by assessing the GIR required to maintain euglycemia during the SU challenge after 10 days of Compound 1 dosing compared to the baseline SU challenge in the absence (predose) of Compound 1.
Glibenclamide will be used for SU-induced hypoglycemia. Based on the available dose-response data in healthy volunteers, 5 mg of glibenclamide will be orally administered to healthy volunteers in selected single- and multi-dose cohorts. The risk of hypoglycemia due to overdose is negligible because continuous glucose monitoring by a clamp device will be performed for each subject and IV infusion of glucose will be provided to maintain each subject's baseline glucose levels.
The euglycemic glucose clamp will be performed by means of a glucose clamp device (ClampArt®; Profil Institut für Stoffwechselforschung, Neuss, Germany). The subject will be connected to the clamp device that will monitor the subject's PG continuously. The device will calculate aggregated PG values every minute. Based on these values, GIR will be calculated every minute using the algorithm implemented into the device and glucose will be administered automatically by the device to keep the PG concentration of the subject constant at a pre-determined target level. Approximately 2 mL of blood per hour will be sampled for glucose monitoring by ClampArt®/the clamp device. […]

[7] = Fasting glucose, insulin and C-peptide, MAD; type: in vivo, human; conditions: 30-120 mg QD for 10 days
Source text: Patients with congenital HI have fasting hypoglycemia due to excess endogenous insulin secretion. Metabolic biomarkers including glucose, insulin, C-peptide, and βhydroxybutyrate will be collected throughout both the SAD and MAD to assess the effect of single and multiple doses of Compound 1.

[8] = after 10 days of 30, 60 or 120 mg QD

Time to steady state trough levels ([1]; QD dosing): ~8 days | Mean accumulation at steady state for AUC ([1]; QD dosing 30-120 mg): 2-2.5 × | Mean accumulation at steady state for Cmaz ([1]; QD dosing 30-120 mg): 1.6-1.8 × | Food effect on exposure ([4]; 120 mg within 30 minutes of a high fat breakfast): significant reduction in exposure | Tmax ([4]; human, in vivo, single oral dose, at efficacious doses): 1 to 2 h | half-life ([4]; human, in vivo, single oral dose, healthy volunteers): ~40 h | AUC [5]: 590 ng·h/mL | Cmax [5]: 45 ng/mL
Compound: C[C@H](NC(=O)c1cnc(C#N)c(-c2cc(F)cc(F)c2)c1N1CC[C@H](N)C1)C(F)(F)F [Compound 1, 4-[(3S)-3-aminopyrrolidin-1-yl]-6-cyano-5-(3,5-difluorophenyl)-N-[(2S)-1,1,1-trifluoropropan-2-yl]pyridine-3-carboxamide]
Dose proportionality of exposures ([1]; between 30 and 120 mg doses): Modestly greater than proportional increases in exposures | Safety and tolerability [2]: generally safe and well tolerated | Blood glucose levels reached over 5 hours ([3]; 3 mg/kg oral): up to 111 mg/dL | Blood glucose levels reached over 5 hours ([3]; 10 mg/kg oral): ≤ 134 mg/dL | Blood glucose levels reached over 5 hours ([3]; 30 mg/kg oral): ≤ 203 mg/dL | Blood glucose levels compared to vehicle ([3]; oral, 3-30 mg/kg): dose-dependently increased blood glucose levels | Minimum effective dose (significant increase in blood glucose AUC over 5 hours) ([3]; oral, single dose): 10 mg/kg | Oral bioavailability and dose proportionality ([4]; single oral doses 0.5 to 120 mg): oral bioavailability with dose-proportional exposure | Plasma glucose during sulfonylurea challenge ([6]; 120 mg cohort, Day 10): mild elevation of plasma glucose | Effect on sulfonylurea-induced hyperinsulinism [6, 8]: reversed sulfonylurea-induced hyperinsulinism | Need for IV glucose support (glucose infusion rate) [6, 8]: eliminating the need for IV glucose support | Insulin and C-peptide levels during sulfonylurea challenge ([6]; day 10, all cohorts): suppressed | Fasting insulin and C-peptide levels [7]: suppressed | Fasting plasma glucose [7]: dose-dependent increase in fasting plasma glucose
